Data: ChEMBL document CHEMBL6071152, “Design, synthesis, and biological evaluation of oridonin derivatives as novel NLRP3 inflammasome inhibitors for the treatment of acute lung injury” (Eur J Med Chem, 2024)
Active and inactive are the calls of the source. No cut-off for these calls is given here.

Key:
[1] = molecular target: NACHT, LRR and PYD domains-containing protein 3 (Mus musculus) (UniProt Q8R4B8); assay: (§1) Inhibition of NLRP3 inflammasome activation in ICR mouse BMDM assessed as inhibition of LPS/ATP-stimulated caspase-1 expression in cell supernatant treated for 3 hrs with LPS followed by incubation with compound for 1 hr and later stimulated with ATP for 0.5 hrs by western blot analysis; format: cell-based; conditions: dose 0.2-5 µM, time 1.5 hrs
Chain of NACHT, LRR and PYD domains-containing protein 3 (Mus musculus) (Q8R4B8 whole entry, the tested form may be a part): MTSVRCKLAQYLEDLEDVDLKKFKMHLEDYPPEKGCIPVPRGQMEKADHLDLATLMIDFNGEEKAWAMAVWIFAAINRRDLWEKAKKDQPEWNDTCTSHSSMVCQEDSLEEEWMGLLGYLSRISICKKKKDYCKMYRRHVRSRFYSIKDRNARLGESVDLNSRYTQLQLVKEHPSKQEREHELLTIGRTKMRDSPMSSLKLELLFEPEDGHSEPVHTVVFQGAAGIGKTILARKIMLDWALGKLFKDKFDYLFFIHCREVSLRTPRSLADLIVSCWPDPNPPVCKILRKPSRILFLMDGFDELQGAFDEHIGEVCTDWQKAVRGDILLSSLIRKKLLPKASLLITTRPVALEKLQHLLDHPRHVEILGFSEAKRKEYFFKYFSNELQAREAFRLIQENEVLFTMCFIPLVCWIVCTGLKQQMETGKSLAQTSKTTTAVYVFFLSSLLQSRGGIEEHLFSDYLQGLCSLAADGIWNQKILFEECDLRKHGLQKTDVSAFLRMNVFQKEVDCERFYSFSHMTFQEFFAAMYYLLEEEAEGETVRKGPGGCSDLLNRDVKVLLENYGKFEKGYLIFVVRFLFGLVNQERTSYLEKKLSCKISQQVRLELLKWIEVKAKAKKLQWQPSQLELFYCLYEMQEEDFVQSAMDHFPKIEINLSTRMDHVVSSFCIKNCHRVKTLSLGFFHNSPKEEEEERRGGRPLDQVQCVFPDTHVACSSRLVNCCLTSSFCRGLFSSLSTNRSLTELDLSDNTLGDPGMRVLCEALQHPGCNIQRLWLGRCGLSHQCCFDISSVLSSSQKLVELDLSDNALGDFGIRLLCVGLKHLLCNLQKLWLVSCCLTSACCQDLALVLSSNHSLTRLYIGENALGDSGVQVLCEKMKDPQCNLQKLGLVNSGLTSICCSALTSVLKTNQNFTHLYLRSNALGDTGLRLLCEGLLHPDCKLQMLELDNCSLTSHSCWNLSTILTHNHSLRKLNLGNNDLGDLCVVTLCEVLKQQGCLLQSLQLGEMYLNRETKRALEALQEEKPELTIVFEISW

[2] = molecular target: NLR family CARD domain-containing protein 4 (Mus musculus) (UniProt Q3UP24); assay: Inhibition of NLRC4 inflammasome activation in ICR mouse BMDM assessed as inhibition of FLA-ST-stimulated IL-1 beta secretion in cell supernatant at 1 uM treated for 3 hrs with LPS followed by incubation with compound for 1 hr and later stimulated with FLA-ST for 2 hrs by ELISA; format: cell-based
Chain of NLR family CARD domain-containing protein 4 (Mus musculus) (Q3UP24 whole entry, the tested form may be a part): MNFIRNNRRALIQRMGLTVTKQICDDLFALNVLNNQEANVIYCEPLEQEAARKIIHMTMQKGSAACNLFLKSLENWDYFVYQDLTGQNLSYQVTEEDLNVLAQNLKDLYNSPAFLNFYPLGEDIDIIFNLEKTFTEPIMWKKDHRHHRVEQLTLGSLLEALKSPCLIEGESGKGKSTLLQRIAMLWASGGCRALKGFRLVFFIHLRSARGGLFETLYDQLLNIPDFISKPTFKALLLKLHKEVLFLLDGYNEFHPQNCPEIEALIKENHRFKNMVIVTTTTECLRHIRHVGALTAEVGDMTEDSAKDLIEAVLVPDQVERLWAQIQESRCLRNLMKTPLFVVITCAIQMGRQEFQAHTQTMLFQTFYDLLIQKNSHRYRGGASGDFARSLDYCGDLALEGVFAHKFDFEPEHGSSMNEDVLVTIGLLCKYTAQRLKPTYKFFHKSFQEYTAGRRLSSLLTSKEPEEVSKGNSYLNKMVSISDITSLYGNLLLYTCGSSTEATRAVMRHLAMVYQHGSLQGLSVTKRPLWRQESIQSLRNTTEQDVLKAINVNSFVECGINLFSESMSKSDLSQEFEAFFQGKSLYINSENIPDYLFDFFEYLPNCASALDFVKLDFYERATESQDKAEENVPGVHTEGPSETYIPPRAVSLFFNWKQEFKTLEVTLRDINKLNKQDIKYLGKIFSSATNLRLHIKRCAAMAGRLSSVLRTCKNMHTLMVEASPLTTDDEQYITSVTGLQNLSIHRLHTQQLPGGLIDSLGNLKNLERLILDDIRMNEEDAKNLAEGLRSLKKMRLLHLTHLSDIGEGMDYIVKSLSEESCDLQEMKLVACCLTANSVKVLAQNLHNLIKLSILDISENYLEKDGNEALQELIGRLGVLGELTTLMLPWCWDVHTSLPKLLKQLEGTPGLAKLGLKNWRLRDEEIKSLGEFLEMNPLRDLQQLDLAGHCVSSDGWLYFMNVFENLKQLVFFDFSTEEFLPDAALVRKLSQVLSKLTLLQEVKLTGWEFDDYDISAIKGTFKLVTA

[3] = molecular target: NACHT, LRR and PYD domains-containing protein 3 (Mus musculus, UniProt Q8R4B8); assay: Inhibition of NLRP3 inflammasome activation in ICR mouse BMDM assessed as inhibition of LPS/ATP-stimulated IL-1 beta production in cell supernatant treated for 3 hrs with LPS followed by incubation with compound for 1 hr and later stimulated with ATP for 0.5 hrs by ELISA; format: cell-based
Chain of NACHT, LRR and PYD domains-containing protein 3 (Q8R4B8 whole entry, the tested form may be a part): as the sequence (Q8R4B8 whole entry, the tested form may be a part) above

[4] = molecular target: NACHT, LRR and PYD domains-containing protein 3 (Mus musculus) (UniProt Q8R4B8); assay: Inhibition of NLRP3 inflammasome activation in ICR mouse BMDM assessed as inhibition of LPS/ATP-stimulated IL-1 beta expression in cell supernatant at 1 uM treated for 3 hrs with LPS followed by incubation with compound for 1 hr and later stimulated with ATP for 0.5 hrs by western blot analysis; format: cell-based; conditions: time 1.5 hrs
[5] = molecular target: NACHT, LRR and PYD domains-containing protein 3 (Mus musculus) (UniProt Q8R4B8); assay: Inhibition of NLRP3 inflammasome priming in ICR mouse BMDM assessed as inhibition of TNF-alpha secretion in cell supernatant at 0.2 to 5 uM pretreated with compound for 1 hr followed by stimulation with LPS for 3 hrs and later incubated with ATP for 30 mins by ELISA; format: cell-based; conditions: dose 0.2-5 µM, time 4.5 hrs
Mus musculus [6] = assay: Anti-inflammatory activity against LPS-stimulated acute lung injury C57BL/6 mouse model assessed as decrease in partial alveolar congestion in right lung at 1 to 10 mg/kg, ip treated for 3 days and on third day administered with LPS at 30 mins post-compound challenge and measured after 12 hrs by Hematoxylin-Eosin staining analysis; format: functional, organism-based; conditions: dose 1-10 mg/kg, time 3.5 day
Mus musculus [7] = assay: (§2) Anti-inflammatory activity against LPS-stimulated acute lung injury C57BL/6 mouse model assessed as decrease in IL-6 mRNA expression in right lung at 0.1 to 1 mg/kg, ip treated for 3 days and on third day administered with LPS at 30 mins post-compound challenge and measured after 12 hrs by RT-qPCR analysis; format: functional, organism-based; conditions: dose 0.1-1 mg/kg, time 3.5 day
[8] = molecular target: NLR family CARD domain-containing protein 4 (Mus musculus) (UniProt Q3UP24); assay: Inhibition of NLRC4 inflammasome activation in ICR mouse BMDM assessed as inhibition of FLA-ST-stimulated IL-1 beta expression in cell supernatant at 1 uM treated for 3 hrs with LPS followed by incubation with compound for 1 hr and later stimulated with FLA-ST for 2 hrs by western blot analysis; format: cell-based
Mus musculus [9] = assay: as §2, with “in IL-1 beta” for “in IL-6 mRNA”, “to 10” for “to 1”, “by western blot” for “by RT-qPCR”; format: functional, organism-based; conditions: dose 0.1-10 mg/kg, time 3.5 day
[10] = molecular target: NACHT, LRR and PYD domains-containing protein 3 (Mus musculus) (UniProt Q8R4B8); assay: Inhibition of NLRP3 inflammasome priming in ICR mouse BMDM assessed as inhibition of pro-IL-1 beta protein expression in cell lysate at 1 uM treated for 3 hrs with LPS followed by incubation with compound for 1 hr and later stimulated with ATP for 0.5 hrs by western blot analysis; format: subcellular; conditions: time 1.5 hrs
[11] = molecular target: NACHT, LRR and PYD domains-containing protein 3 (Mus musculus) (UniProt Q8R4B8); assay: (§3) Inhibition of NLRP3 inflammasome activation in ICR mouse BMDM assessed as inhibition of LPS/MSU-stimulated IL-1 beta expression in cell supernatant at 1 uM treated for 3 hrs with LPS followed by incubation with compound for 1 hr and later stimulated with MSU for 4 hrs by western blot analysis; format: cell-based; conditions: time 5.0 hrs
Mus musculus [12] = assay: Anti-inflammatory activity against LPS-stimulated acute lung injury C57BL/6 mouse model assessed as decrease in IL-6 level in serum at 0.1 to 1 mg/kg, ip treated for 3 days and on third day administered with LPS at 30 mins post-compound challenge and measured after 12 hrs by ELISA; format: functional, organism-based; conditions: dose 0.1-1 mg/kg, time 3.5 day
Mus musculus [13] = assay: Anti-inflammatory activity against LPS-stimulated acute lung injury C57BL/6 mouse model assessed as decrease in weight loss at 0.1 to 1 mg/kg, ip treated for 3 days and on third day administered with LPS at 30 mins post-compound challenge; format: functional, organism-based; conditions: dose 0.1-1 mg/kg, time 3.0 day
[14] = molecular target: NACHT, LRR and PYD domains-containing protein 3 (Mus musculus) (UniProt Q8R4B8); assay: Inhibition of NLRP3 inflammasome priming in ICR mouse BMDM assessed as inhibition of pro-caspase-1 protein expression in cell lysate at 1 uM treated for 3 hrs with LPS followed by incubation with compound for 1 hr and later stimulated with ATP for 0.5 hrs by western blot analysis; format: subcellular; conditions: time 1.5 hrs
[15] = molecular target: NACHT, LRR and PYD domains-containing protein 3 (Mus musculus) (UniProt Q8R4B8); assay: Inhibition of NLRP3 inflammasome priming in ICR mouse BMDM assessed as inhibition of ASC expression in cell supernatant at 0.2 to 5 uM pretreated with compound for 1 hr followed by stimulation with LPS for 3 hrs and later incubated with ATP for 30 mins by western blot analysis; format: cell-based; conditions: dose 0.2-5 µM, time 4.5 hrs
Mus musculus [16] = assay: Anti-inflammatory activity against LPS-stimulated acute lung injury C57BL/6 mouse model assessed as decrease in TNF-alpha level in BALF at 0.1 to 1 mg/kg, ip treated for 3 days and on third day administered with LPS at 30 mins post-compound challenge and measured after 12 hrs by ELISA; format: functional, organism-based; conditions: dose 0.1-1 mg/kg, time 3.5 day
[17] = molecular target: NLR family CARD domain-containing protein 4 (Mus musculus) (UniProt Q3UP24); assay: Inhibition of NLRC4 inflammasome activation in ICR mouse BMDM assessed as inhibition of FLA-ST-stimulated caspase-1 expression in cell supernatant at 1 uM treated for 3 hrs with LPS followed by incubation with compound for 1 hr and later stimulated with FLA-ST for 2 hrs by western blot analysis; format: cell-based
Mus musculus [18] = assay: as §2, with “in caspase-1” for “in IL-6 mRNA”, “to 10” for “to 1”, “by western blot” for “by RT-qPCR”; format: functional, organism-based; conditions: dose 0.1-10 mg/kg, time 3.5 day
[19] = molecular target: T1, Interferon-inducible protein AIM2 (Mus musculus) (UniProt Q91VJ1); assay: as §3, with “AIM2” for “NLRP3”, “poly(dA:dT)-stimulated” for “LPS/MSU-stimulated”, “cells transfected” for “stimulated”, “poly(dA:dT)” for “MSU”; format: cell-based; conditions: time 5.0 hrs
T1 sequence (whole entry): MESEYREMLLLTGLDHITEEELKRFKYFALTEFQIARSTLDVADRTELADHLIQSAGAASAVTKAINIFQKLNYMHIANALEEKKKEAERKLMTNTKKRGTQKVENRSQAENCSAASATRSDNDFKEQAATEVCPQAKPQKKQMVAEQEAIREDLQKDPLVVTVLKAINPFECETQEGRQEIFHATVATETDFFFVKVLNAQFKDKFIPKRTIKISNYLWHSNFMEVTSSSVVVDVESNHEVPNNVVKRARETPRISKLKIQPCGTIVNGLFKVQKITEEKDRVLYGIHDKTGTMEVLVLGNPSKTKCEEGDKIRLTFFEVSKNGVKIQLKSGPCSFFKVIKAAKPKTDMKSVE

[20] = molecular target: NACHT, LRR and PYD domains-containing protein 3 (Mus musculus) (UniProt Q8R4B8); assay: Inhibition of NLRP3 inflammasome priming in ICR mouse BMDM assessed as inhibition of pro-IL-1 beta expression in cell supernatant at 0.2 to 5 uM pretreated with compound for 1 hr followed by stimulation with LPS for 3 hrs and later incubated with ATP for 30 mins by western blot analysis; format: cell-based; conditions: dose 0.2-5 µM, time 4.5 hrs
[21] = molecular target: NACHT, LRR and PYD domains-containing protein 3 (Mus musculus) (UniProt Q8R4B8); assay: as §1, with “LPS/nigericin-stimulated” for “LPS/ATP-stimulated”, “supernatant at 1 uM” for “supernatant”, “nigericin” for “ATP”; format: cell-based; conditions: time 1.5 hrs

C=C1C(=O)[C@]23[C@H](OC(=O)Nc4ccc(F)cc4)[C@H]1CC[C@H]2[C@]12C=CCC(C)(C)[C@H]1[C@H](O)[C@@]3(O)OC2
inhibition [1]: Dose-Dependent Effect | inhibition [2]: inactive | IC50 [3]: 41.8 nM | inhibition [4]: Active | inhibition [5]: inactive | Activity (Mus musculus [6]): Active | Activity (Mus musculus [7]): Dose-Dependent Effect | inhibition [8]: inactive | Activity (Mus musculus [9]): Active | inhibition [10]: inactive | inhibition [11]: Active | Activity (Mus musculus [12]): Dose-Dependent Effect | Activity (Mus musculus [13]): Active | inhibition [14]: inactive | inhibition [15]: inactive | Activity (Mus musculus [16]): Dose-Dependent Effect | inhibition [17]: inactive | Activity (Mus musculus [18]): Active | inhibition [19]: inactive | inhibition [20]: inactive | inhibition [21]: Active
